For one series, the system named is CEM-SS cells. Nature of the series: Cytotoxicity of the combinations in the XTT dye reduction assay (mock infected CEM-SS cells). Here is the method:
CEM-SS cells were added at 2×10^4 cells per well into 96-well plates containing 1.5-fold or 2.0-fold dilutions of test compounds, and were subsequently infected with HIV-1 RF at a multiplicity of infection of 0.470 or mock infected with medium only. Six days after infection, 50 μl of XTT (1 mg/ml XTT tetrazolium, […] phenazine methosulfate) were added to the wells and the plate was reincubated for four hours. Viability, as determined by the amount of XTT formazan produced, was quantified spectrophotometrically by absorbance at 450 nm. Optical density values were exported to a MacSynergy™ II (3, University of Michigan, Ann Arbor, Mich.) spreadsheet for subsequent analysis.
For orientation: Tetrazolium assays rely on reduction of a dye to a coloured formazan, in cell work by metabolically active cells.

The test system of a further series is HIV-1 RF. The series can be described thus: XTT dye reduction combination assay: protection of CEM-SS cells against HIV-1 RF infection, MacSynergy II analysis. It counts as cell-based. Conditions: 95% confidence interval.
[1] abbreviates: in combination with 4,4-difluoro-1-{(2S,3S)-2-hydroxy-3-[(3-hydroxy-2-methylbenzoyl)amino]-4-phenylbutanoyl}-3,3-dimethyl-N-(2,2,2-trifluoroethyl)-L-prolinamide.
Setting [2] is: in combination with 4,4-difluoro-1-{(2S,3S)-2-hydroxy-3-[(3-hydroxy-2-methylbenzoyl)amino]-4-phenylbutanoyl}-3,3-dimethyl-N-(2,2,2-trifluoroethyl)-L-prolinamide, six days after infection of CEM-SS cells with HIV-1 RF, triplicate plates.
Setting [3] is: in combination with N-ethyl-4,4-difluoro-1-{(2S,3S)-2-hydroxy-3-[(3-hydroxy-2,5-dimethylbenzoyl)amino]-4-phenylbutanoyl}-3,3-dimethyl-L-prolinamide.
Where [4] appears, read: in combination with (4R)-N-allyl-3-{(2S,3S)-2-hydroxy-3-[(3-hydroxy-2-methylbenzoyl)amino]-4-phenylbutanoyl}-5,5-dimethyl-1,3-thiazolidine-4-carboxamide, mean of two or three independent experiments.
The mark [5] stands for this setting: in combination with N-ethyl-4,4-difluoro-1-{(2S,3S)-2-hydroxy-3-[(3-hydroxy-2,5-dimethylbenzoyl)amino]-4-phenylbutanoyl}-3,3-dimethyl-L-prolinamide, six days after infection of CEM-SS cells with HIV-1 RF, triplicate plates.

Take `Cc1cccc(C)c1OCC(=O)N[C@@H](Cc1ccccc1)[C@@H](O)C[C@H](Cc1ccccc1)NC(=O)[C@H](C(C)C)N1CCCNC1=O` (relative stereo) [Lopinavir, [1S-[1R*,(R*),3R*,4R*]]—N-[4-[[(2,6-dimethyl-phenoxy)acetyl]amino]-3-hydroxy-5-phenyl-1-(phenylmethyl)pentyl]tetrahydro-alpha-(1-methylethyl)-2-oxo-1(2H)-pyrimidineacetamide]: the Cytotoxicity result in the series on CEM-SS cells (setting [1]) was “none”. In addition, in the series with HIV-1 RF (setting [2]), the “Antagonism (volume)” value is given as 0 μM^2% and the “Synergy (volume)” value turned out to be 261 μM^2%.

Turning to `Cc1c(O)cccc1C(=O)N[C@@H](CSc1ccccc1)[C@H](O)CN1C[C@H]2CCCC[C@H]2C[C@H]1C(=O)NC(C)(C)C` (relative stereo) [Nelfinavir, [3S-[2(2S*, 3S*),3-alpha,4abeta,8abeta]]-N-(1,1-dimethylethyl)decahydro-2-[2-hydroxy-3-[(3-hydroxy-2-methylbenzoyl)amino]-4-(phenylthio)butyl]-3-isoquinolinecarboxamide mono-methanesulfonate], the Cytotoxicity result in the series on CEM-SS cells (setting [1]) and in the series on CEM-SS cells (setting [3]) was “none” throughout. For the same molecule, the entries for the “Antagonism (volume)” value in the series on HIV-1 RF (setting [2]), in the series on HIV-1 RF (setting [4]) and in the series with HIV-1 RF (setting [5]) were −0.28 μM^2%, −13 μM^2% and 0 μM^2%, respectively. For the same molecule, the results for the “Synergy (volume)” value in the series on HIV-1 RF (setting [2]), in the series with HIV-1 RF (setting [4]) and with HIV-1 RF (setting [5]) were 653 μM^2%, 197 μM^2% and 229 μM^2%, respectively.

With `CC(C)c1nc(CN(C)C(=O)N[C@H](C(=O)N[C@@H](Cc2ccccc2)C[C@H](O)[C@H](Cc2ccccc2)NC(=O)OCc2cncs2)C(C)C)cs1` (relative stereo) [Ritonavir, 10-hydroxy-2-methyl-5-(1-methylethyl)-1-[2-(1-methylethyl)-4-thiazolyl]-3,6-dioxo-8,11-bis(phenylmethyl)-2,4,7,12-tetraazatridecan-13-oic acid, 5-thiazolylmethyl ester, [5S-(5R*,8R*,10R*,11R*)]], in the series with HIV-1 RF (setting [4]), the “Antagonism (volume)” value is listed as −0.77 μM^2% and the “Synergy (volume)” value amounted to 407 μM^2%.

On to `O=C1Nc2ccc(Cl)cc2[C@@](C#CC2CC2)(C(F)(F)F)O1` [Efavirenz, (S)-6-chloro-4-(cyclopropylethynyl)-1,4-dihydro-4-(trifluoromethyl)-2H-3,1-benzoxazin-2-one], for which, in the series with CEM-SS cells (setting [3]), the Cytotoxicity result was “none”. Further, in the series with HIV-1 RF (setting [4]), the “Antagonism (volume)” value is reported as −1.1 μM^2% and the “Synergy (volume)” value was 130 μM^2%. Also, in the series on HIV-1 RF (setting [5]), the “Antagonism (volume)” value is 0 μM^2% and the “Synergy (volume)” value came to 78 μM^2%.

Regarding `Cc1ccnc2c1NC(=O)c1cccnc1N2C1CC1` [Nevirapine, 11-cyclopropyl-5,11-dihydro-4-methyl-6H-dipyrido[3,2-b:2′,3′-e][1,4]diazepin-6-one], the values for the Cytotoxicity entry in the series with CEM-SS cells (setting [1]) and with CEM-SS cells (setting [3]) were “none” and “insignificant”, respectively. In addition, the “Antagonism (volume)” value in the series with HIV-1 RF (setting [2]) is reported as 0 μM^2%; in the series with HIV-1 RF (setting [4]) it was 0 μM^2%; in the series with HIV-1 RF (setting [5]), −2.4 μM^2%. Besides, the “Synergy (volume)” value in the series on HIV-1 RF (setting [2]) is given as 270 μM^2%; with HIV-1 RF (setting [4]), 203 μM^2%; in the series with HIV-1 RF (setting [5]), 153 μM^2%.

Take `CC(C)OC(=O)OCOP(=O)(CO[C@H](C)Cn1cnc2c(N)ncnc21)OCOC(=O)OC(C)C.O=C(O)/C=C/C(=O)O` [Tenofovir, 9-[(R)-2-[[bis[[(isopropoxycarbonyl)oxy]methoxy]phosphinyl]methoxy]propyl]adenine fumarate (1:1)]: the Cytotoxicity entry with CEM-SS cells (setting [1]) was “none”; with CEM-SS cells (setting [3]), “insignificant”. In addition, the “Antagonism (volume)” value in the series on HIV-1 RF (setting [2]) was −6.0 μM^2%; in the series on HIV-1 RF (setting [4]), 0 μM^2%; with HIV-1 RF (setting [5]), 0 μM^2%. Besides, the “Synergy (volume)” value in the series with HIV-1 RF (setting [2]) is 106 μM^2%; with HIV-1 RF (setting [4]) it was 125 μM^2%; with HIV-1 RF (setting [5]) it was 14 μM^2%.

Turning to `Cc1cn([C@H]2C[C@H](N=[N+]=[N-])[C@@H](CO)O2)c(=O)[nH]c1=O` [Zidovudine, 3′-azido-3′-deoxythymidine], the “Antagonism (volume)” value was 0 μM^2% with HIV-1 RF (setting [2]) and −0.88 μM^2% in the series with HIV-1 RF (setting [4]). In addition, the “Synergy (volume)” value in the series with HIV-1 RF (setting [2]) was 107 μM^2%; in the series with HIV-1 RF (setting [4]), 180 μM^2%.

(Values after patent US20050171038A1, “Therapeutic combinations” (Agouron Pharmaceuticals, Inc., priority 2004, published 2005).)
